From patent US6296873A, “Zero-order sustained release delivery system for carbamazephine derivatives” (Yissum Research Development Company of the Hebrew …, priority 2000, dated 2001)
Converted amounts (≈) assume the structure as drawn. Where two headings read alike, the source gives them in different places.

Key:
[1] = after 1 hour, in the presence of water; cited from earlier work
[2] = Crystal morphology and structure of carbamazepine from HPMC solutions (SEM, X-ray diffraction); format: physicochemical; settings: for X-ray diffraction: crystal form of carbamazepine: 1 day
Protocol: (§1) Analysis of carbamazepine in HPMC solutions and in dry mixtures of HPMC was performed. Suspension of carbamazepine (5% w/v) containing 1% SDS aqueous solution with Methocel K4M at different concentrations, namely 0.5, 1, 2, 5 and 10 mg,/ml were shaken for 1-7 days at 37° C. with stirring (50 rpm). Samples from the sediment were taken, at various time intervals, dried at room temperature for 2 days and analyzed by DSC, X-ray powder diffraction and SEM.
(§2) X-ray powder diffraction of the samples was recorded by Philips automated diffractometer using Cu-K α radiation (40 kV, 35 mA) at a scanning rate of 0.5° per 20 min^-1.
Samples of hydrated tablets were sliced across the gel layer. The samples were washed and then treated with increasing concentration of ethanol, 5 minutes at each concentration, for dehydration. In order to complete the dehydration the samples were transferred in solution of freon 113:ethanol with increasing concentrations of freon (25, 50, 75, 100%). The samples with 100% freon were incubated in the hood for 0.5 hour. The cross-sectioned tablets were mounted on stubs and coated with a polaron sputter coater, Model E5100. The film thickness obtained was approximately 75 Å. Scanning electron photomicrographs were recorded using a Philips 505 SEM, applying voltage of […]. Samples of powders were coated and analyzed under the same conditions described for the hydrated tablets.

[3] = Crystal morphology and structure of carbamazepine in the gel layer of hydrated tablets (DSC, X-ray, SEM); format: physicochemical; settings: for SEM: form of carbamazepine in the gel layer: 50% Methocel K4M
Protocol: Gel layers of the tablets were analyzed. Tablets were hydrated using the USP Basket Method I under the same conditions described in the dissolution studies. At various time intervals the tablets were removed from the baskets, the gel layer was scratched and dried at room temperature for at least 24 hours. The gel layer was analyzed by DSC, X-ray powder diffraction and scanning electron microscopy (SEM). Used analytical methods are described in Example 4.
Tablets containing 50% carbamazepine and 50% Methocel K4M were prepared and hydrated in medium containing 1% SDS in water, using tablet dissolution tester at the same conditions used for measurements of the release rate of the drug.
At various time intervals the tablets were removed and the gel layer was peeled, dried at room temperature and analyzed by DSC, X-ray and SEM. For comparison, a suspension containing carbamazepine in 1% SDS water solution was prepared and the crystals obtained were analyzed by DSC, X-ray and SEM.
(§3) The thermal analysis of the samples was performed using a Differential Scanning Calorimeter (DSC, Mettler TA4000 with measuring cell DSC 30E, Switzerland). Samples were measured into aluminum pans. Lids were crimped and holes were made in lids in order to allow dehydration of samples. The thermal behavior of the samples was studied under nitrogen purge at heating rates of 10° C. min^-1 over a temperature range of 0° C. to 250° C. When the glass transition temperature of HPMC was examined the heating rate was 0.5° C. min^-1.
as §2
Samples of hydrated tablets were sliced across the gel layer. The samples were washed and then treated with increasing concentration of ethanol, 5 minutes at each concentration, for dehydration. […] Scanning electron photomicrographs were recorded using a Philips 505 SEM, applying voltage of […]. Samples of powders were coated and analyzed under the same conditions described for the hydrated tablets.

[4] = Solubility of carbamazepine in medium; format: physicochemical; settings: read-out: Drug solubility
Description: Results are seen in FIG. 12.

[5] = anhydrous carbamazepine; cited from earlier work
[6] = Degree of conversion of anhydrous carbamazepine to carbamazepine dihydrate in suspension (DSC); format: physicochemical
Protocol: Suspensions of carbamazepine (5% w/v) containing water or 1% SDS aqueous solution were shaken at 37° C. with stirring (50 rpm). Samples from the sediment were taken after 1 day, dried at room temperature for 2 days, and analyzed by differential scanning calorimetry, X-ray powder diffraction and scanning electron microscopy (SEM). Carbamazepine anhydrous powder was analyzed using the same methods.
as §1
The degree of conversion of anhydrous carbamazepine to the dihydrate form, measured by DSC, was calculated according to the ratio obtained from the dehydration enthalpies of carbamazepine suspended in 1% SDS aqueous Methocel solution and 1% SDS aqueous solution without Methocel. Dry mixtures containing different ratios of HPMC (Methocel K4M) and carbamazepine were also analyzed by DSC in order to investigate the influence of HPMC on the polymorphic transformation of carbamazepine.
as §3

X-ray diffraction: crystal form of carbamazepine ([2]; 10 mg/ml Methocel K4M solution): solely the anhydrous form
SEM: appearance of carbamazepine crystals from HPMC solutions ([2]; 1, 5 or 10 mg/ml HPMC, 1 and 7 days): appear to be amorphous
SEM: form of carbamazepine in the gel layer ([3]; 6 hours of hydration): transformed to an amorphous form
SEM: form of carbamazepine in the gel layer ([3]; 20 hours hydration): showed the same behavior
Transformation of carbamazepine to the dihydrate form in the gel layer ([3]; hydrated tablets containing 50% polymer, 6 and 20 hours): inhibited
solubility ([4]; 0.5% sds in water): 1470 µg/mL (≈ 6.21 mM)
solubility ([4]; 1% sds in water): 3300 µg/mL (≈ 14 mM)
Degree of conversion of carbamazepine to carbamazepine dihydrate ([6]; 5 mg/ml Methocel K4M, time 1 day): 0%
Degree of conversion of carbamazepine to carbamazepine dihydrate ([6]; 5 mg/ml Methocel K4M, time 2 days): 0.97%
Degree of conversion of carbamazepine to carbamazepine dihydrate ([6]; 5 mg/ml Methocel K4M, time 3 days): 8.8%
Degree of conversion of carbamazepine to carbamazepine dihydrate ([6]; 5 mg/ml Methocel K4M, time 4 days): 21.5%
Degree of conversion of carbamazepine to carbamazepine dihydrate ([6]; 5 mg/ml Methocel K4M, time 7 days): 100%
Degree of conversion of carbamazepine to carbamazepine dihydrate ([6]; Methocel K4M 0 mg/ml, 24 hours, 1% SDS, 37° C.): 100%
Degree of conversion of carbamazepine to carbamazepine dihydrate ([6]; Methocel K4M 0.5 mg/ml, 24 hours, 1% SDS, 37° C.): 77.0%
Degree of conversion of carbamazepine to carbamazepine dihydrate ([6]; Methocel K4M 1 mg/ml, 24 hours, 1% SDS, 37° C.): 23.1%
Degree of conversion of carbamazepine to carbamazepine dihydrate ([6]; Methocel K4M 2 mg/ml, 24 hours, 1% SDS, 37° C.): 0%
Degree of conversion of carbamazepine to carbamazepine dihydrate ([6]; Methocel K4M 5 mg/ml, 24 hours, 1% SDS, 37° C.): 0%
Degree of conversion of carbamazepine to carbamazepine dihydrate ([6]; Methocel K4M 10 mg/ml, 24 hours, 1% SDS, 37° C.): 0%
Transformation of carbamazepine to dihydrate ([6]; after 7 days, all examined Methocel K4M concentrations): transformed completely to dihydrate
Conversion of anhydrous carbamazepine to dihydrate (DSC thermograms) ([6]; suspended in water, without HPMC): completely converted to dihydrate
Structure (SMILES): NC(=O)N1c2ccccc2C=Cc2ccccc21 [carbamazepine]
Conversion to carbamazepine dihydrate complete [1]: 95%
X-ray diffraction: crystal form of carbamazepine ([2]; 1 mg/ml Methocel K4M solution): mixture of carbamazepine and carbamazepine dihydrate crystals
Solubility in water [5]: practically insoluble in water
